Laboratory results: US20240174648A1, “Small Molecule Compound” (Technoderma Medicines Pte Ltd, priority 2019, published 2024)

Legend:
Format in all cases: biochemical
Tyk2 = Tyk2 (Homo sapiens, UniProt P29597); experiment: JAK kinase inhibition assay (EZ Reader, peptide substrate phosphorylation) - Tyk2; conditions: Tyk2 kinase 1 nM; 8 concentration points, max 10 μM
How it was run: (§1)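 Microfluidic mobility-shift detection of fluorescent peptide substrate phosphorylation, with JAK1 at 20 nM and JAK2, JAK3 and Tyk2 each at 1 nM final, in 20 mM HEPES pH 7.4, 10 mM MgCl2, 1 mM DTT. Reactions run at room temperature to 20–30% conversion, then EDTA-stopped. Compounds tested at 8 three-fold dilutions from 10 μM top final; IC50 from conversion curves.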

JAK1 = JAK1 (Homo sapiens, UniProt P23458); experiment: JAK kinase inhibition assay (EZ Reader, peptide substrate phosphorylation) - JAK1; conditions: JAK1 kinase 20 nM; 8 concentration points, max 10 μM
How it was run: as §1

JAK2 = JAK2 (Homo sapiens, UniProt O60674); experiment: JAK kinase inhibition assay (EZ Reader, peptide substrate phosphorylation) - JAK2; conditions: JAK2 kinase 1 nM; 8 concentration points, max 10 μM
From the text: (§2) Assay for Identifying Inhibitory Effects of Compounds on JAK Kinases
(§3) Janus kinases (JAK), including JAK1, JAK2, JAK3 and Tyk2, transduce a cytokine-mediated signal through a JAK-STAT pathway. The kinases are 120-140 kDa in size and have 7 determined homology regions: JH1 to JH7. JH1 is an important region for enzymatic activity and has typical characteristics of tyrosine kinases. Phosphorylation of tyrosine leads to a change in the conformation of JAK protein, thereby promoting binding of substrate. The JAK-STAT system includes three main parts: receptors penetrating a cell membrane, Janus kinases binding to the receptors, and signal transducers and activators of transcription (STAT) for transmitting signals to a nucleus and DNA. When cytokines bind to receptors, JAK phosphorylates the receptors and attracts STAT proteins. The STAT proteins are also phosphorylated and combined with one another to form dimers. The dimers enter the nucleus and bind to DNA, thereby leading to gene transcription.
(§4) EZ Reader from PerkinElmer can be used to detect the phosphorylation of polypeptide substrates catalyzed by kinases. The device is based on microfluidic techniques, and can directly detect fluorescently labeled substrates and products. The separation step is achieved by controlling the pressure and electric field strength in the microfluidic chip. In kinase assays, a product conversion ratio is usually controlled to be 20-30%. A biological test is used to identify inhibitory effects of compounds on JAKs.
(§5) Compound powder was dissolved in DMSO, sealed and stored in a freezer under −20° C. The in-house compound Ref1 was used as a positive control for JAK1, JAK2 and Tyk2 tests, and Ref2 was used as a positive control for JAK3 tests.
(§6) S2.8. Assay buffer: 20 mM HEPES buffer, pH 7.4, 10 mM magnesium chloride, 0.01% bovine serum albumin BSA, 0.0005% Tween-20 and 1 mM dithiothreitol solution.
(§7) S2.9. Stop buffer: 180 mM HEPES buffer, 20 mM ethylenediaminetetraacetic acid and 0.2% coating reagent 3.
(§8) S2.10. Separation buffer: 100 mM HEPES buffer, 10 mM ethylenediaminetetraacetic acid, 0.0005% Tween 20, 0.1% coating reagent 3 and 1% dimethyl sulfoxide.
The compound was dissolved in dimethyl sulfoxide and diluted to 10 mM concentration, a certain volume of solution was taken and diluted to 0.6 mM concentration, 10 μL of the 0.6 mM dilution was added to a 384-well microplate, and then was diluted 3-fold with a total of 8 concentration points.
Positive control (HPE1): Ref1, final concentration: 10 μM […]
(§9) Negative control (ZPE): DMSO, final content: 1.6%
(§10) Compounds: maximum final concentration: 10 μM; 3-fold dilution, 8 concentration points and 2 duplicates.
(§11) S4.1. 250 nL of the compound was added to each well of the assay microplate by using ECHO, and centrifuged at 1000 rpm for 1 minute.
(§12) S4.2. 5 μL of the assay buffer was added and agitated for a few seconds to fully dissolve the compound.
(§13) S4.3. 5 μL of 3× substrate solution and 5 μL of 3× kinase solution were added and centrifuged at 800 rpm for 1 minute.
(§14) S4.4. Final concentrations of JAK1, JAK2, JAK3 and Tyk2 kinases in the reaction system were 20 nM, 1 nM, 1 nM and 1 nM respectively.
(§15) S4.5. Incubation at room temperature, where kinases had time differences, and different batches of kinases had time differences.
(§16) S4.6. When 20%-30% of the reaction completed, 15 μL of stop buffer was added to stop the reaction, and centrifuged at 1000 rpm for 2 minutes.
(§17) S4.7. The microplates were placed on EZ Reader for reading.
(§18) S4.8. Readings on EZ Reader were calculated by using a peak height, where product conversion ratio (%)=product/(product+substrate)*100.
(§19) 5. Data Processing: IC50 calculation
(§20) A graphing software Xlfit was used to form a concentration curve of the test compound, and an IC50 value was calculated.
(§21) “A” means “≥10 μM”; “B” means “≥1 μM and <10 μM”; “C” means “≥0.1 μM and <1 μM”; and “D” means “<0.1 μM”.

JAK3 = target: T1, JAK3 (Homo sapiens, UniProt P52333); experiment: JAK kinase inhibition assay (EZ Reader, peptide substrate phosphorylation) - JAK3; conditions: JAK3 kinase 1 nM; 8 concentration points, max 10 μM
T1 sequence (P52333 1-1124): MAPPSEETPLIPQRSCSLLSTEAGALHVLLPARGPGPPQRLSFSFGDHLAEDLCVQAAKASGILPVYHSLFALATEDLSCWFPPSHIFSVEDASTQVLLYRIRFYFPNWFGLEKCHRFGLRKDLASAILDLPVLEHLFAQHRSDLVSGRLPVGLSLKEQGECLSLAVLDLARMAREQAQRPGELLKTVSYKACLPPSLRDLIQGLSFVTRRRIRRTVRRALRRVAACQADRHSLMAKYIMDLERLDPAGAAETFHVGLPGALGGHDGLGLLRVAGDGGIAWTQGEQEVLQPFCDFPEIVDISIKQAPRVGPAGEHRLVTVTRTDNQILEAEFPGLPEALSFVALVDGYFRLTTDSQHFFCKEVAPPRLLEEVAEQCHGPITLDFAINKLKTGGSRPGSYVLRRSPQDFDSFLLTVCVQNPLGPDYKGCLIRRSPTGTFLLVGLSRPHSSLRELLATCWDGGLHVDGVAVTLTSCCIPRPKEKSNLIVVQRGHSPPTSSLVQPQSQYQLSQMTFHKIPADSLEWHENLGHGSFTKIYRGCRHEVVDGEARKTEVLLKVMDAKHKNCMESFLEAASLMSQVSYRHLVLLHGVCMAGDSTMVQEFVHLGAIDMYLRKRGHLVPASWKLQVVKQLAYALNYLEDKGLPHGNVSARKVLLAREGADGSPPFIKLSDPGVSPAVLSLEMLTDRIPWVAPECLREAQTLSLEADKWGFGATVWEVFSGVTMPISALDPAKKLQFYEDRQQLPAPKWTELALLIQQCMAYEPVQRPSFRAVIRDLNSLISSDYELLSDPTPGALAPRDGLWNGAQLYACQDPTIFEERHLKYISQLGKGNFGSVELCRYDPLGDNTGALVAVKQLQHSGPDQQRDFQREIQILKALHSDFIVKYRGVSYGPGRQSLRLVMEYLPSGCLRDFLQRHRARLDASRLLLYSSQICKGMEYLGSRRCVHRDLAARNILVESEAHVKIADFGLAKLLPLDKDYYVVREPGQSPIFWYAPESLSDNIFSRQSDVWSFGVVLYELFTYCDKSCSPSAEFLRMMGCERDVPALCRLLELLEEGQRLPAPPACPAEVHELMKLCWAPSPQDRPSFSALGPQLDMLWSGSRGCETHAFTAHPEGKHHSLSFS
From the text: as §2, §3, §4, §5, §6, §7, §8
The compound was dissolved in dimethyl sulfoxide and diluted to 10 mM concentration, a certain volume of solution was taken and diluted to 0.6 mM concentration, 10 μL of the 0.6 mM dilution was added to a 384-well microplate, and then was diluted 3-fold with a total of 8 concentration points. […]
Positive control (HPE1): Ref2, final concentration: 10 μM
as §9, §10, §11, §12, §13, §14, §15, §16, §17, §18, §19, §20, §21

JAK1, sequence (P23458 whole entry): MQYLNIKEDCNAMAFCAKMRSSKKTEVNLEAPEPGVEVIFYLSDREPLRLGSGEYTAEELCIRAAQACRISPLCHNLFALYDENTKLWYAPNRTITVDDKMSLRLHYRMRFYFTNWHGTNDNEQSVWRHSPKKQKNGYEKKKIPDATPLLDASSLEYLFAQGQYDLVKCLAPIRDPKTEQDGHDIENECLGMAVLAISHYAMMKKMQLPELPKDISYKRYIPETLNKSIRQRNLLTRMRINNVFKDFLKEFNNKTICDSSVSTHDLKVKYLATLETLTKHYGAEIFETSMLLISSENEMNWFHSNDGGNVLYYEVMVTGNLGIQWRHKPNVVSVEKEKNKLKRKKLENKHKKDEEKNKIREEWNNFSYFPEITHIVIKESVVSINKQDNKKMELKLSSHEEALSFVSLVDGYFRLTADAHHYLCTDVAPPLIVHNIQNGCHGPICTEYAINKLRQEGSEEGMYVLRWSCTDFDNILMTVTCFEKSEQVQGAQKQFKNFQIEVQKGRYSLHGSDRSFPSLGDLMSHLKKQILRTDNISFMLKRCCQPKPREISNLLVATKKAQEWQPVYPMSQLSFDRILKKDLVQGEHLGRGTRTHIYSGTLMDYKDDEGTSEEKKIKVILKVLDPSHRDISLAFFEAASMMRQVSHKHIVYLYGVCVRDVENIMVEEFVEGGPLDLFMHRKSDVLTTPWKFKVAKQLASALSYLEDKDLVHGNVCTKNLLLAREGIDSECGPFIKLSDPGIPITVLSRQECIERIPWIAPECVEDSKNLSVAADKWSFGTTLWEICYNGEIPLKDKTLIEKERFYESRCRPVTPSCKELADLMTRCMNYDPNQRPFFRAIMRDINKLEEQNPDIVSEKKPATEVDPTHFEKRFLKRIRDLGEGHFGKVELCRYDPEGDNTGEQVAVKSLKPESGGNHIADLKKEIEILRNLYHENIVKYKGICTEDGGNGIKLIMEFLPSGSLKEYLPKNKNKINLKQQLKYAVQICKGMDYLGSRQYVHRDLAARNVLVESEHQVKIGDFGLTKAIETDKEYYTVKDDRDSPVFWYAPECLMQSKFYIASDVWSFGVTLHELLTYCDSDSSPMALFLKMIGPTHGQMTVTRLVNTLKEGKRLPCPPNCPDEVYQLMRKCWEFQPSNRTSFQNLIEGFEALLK
JAK2, sequence (O60674 whole entry): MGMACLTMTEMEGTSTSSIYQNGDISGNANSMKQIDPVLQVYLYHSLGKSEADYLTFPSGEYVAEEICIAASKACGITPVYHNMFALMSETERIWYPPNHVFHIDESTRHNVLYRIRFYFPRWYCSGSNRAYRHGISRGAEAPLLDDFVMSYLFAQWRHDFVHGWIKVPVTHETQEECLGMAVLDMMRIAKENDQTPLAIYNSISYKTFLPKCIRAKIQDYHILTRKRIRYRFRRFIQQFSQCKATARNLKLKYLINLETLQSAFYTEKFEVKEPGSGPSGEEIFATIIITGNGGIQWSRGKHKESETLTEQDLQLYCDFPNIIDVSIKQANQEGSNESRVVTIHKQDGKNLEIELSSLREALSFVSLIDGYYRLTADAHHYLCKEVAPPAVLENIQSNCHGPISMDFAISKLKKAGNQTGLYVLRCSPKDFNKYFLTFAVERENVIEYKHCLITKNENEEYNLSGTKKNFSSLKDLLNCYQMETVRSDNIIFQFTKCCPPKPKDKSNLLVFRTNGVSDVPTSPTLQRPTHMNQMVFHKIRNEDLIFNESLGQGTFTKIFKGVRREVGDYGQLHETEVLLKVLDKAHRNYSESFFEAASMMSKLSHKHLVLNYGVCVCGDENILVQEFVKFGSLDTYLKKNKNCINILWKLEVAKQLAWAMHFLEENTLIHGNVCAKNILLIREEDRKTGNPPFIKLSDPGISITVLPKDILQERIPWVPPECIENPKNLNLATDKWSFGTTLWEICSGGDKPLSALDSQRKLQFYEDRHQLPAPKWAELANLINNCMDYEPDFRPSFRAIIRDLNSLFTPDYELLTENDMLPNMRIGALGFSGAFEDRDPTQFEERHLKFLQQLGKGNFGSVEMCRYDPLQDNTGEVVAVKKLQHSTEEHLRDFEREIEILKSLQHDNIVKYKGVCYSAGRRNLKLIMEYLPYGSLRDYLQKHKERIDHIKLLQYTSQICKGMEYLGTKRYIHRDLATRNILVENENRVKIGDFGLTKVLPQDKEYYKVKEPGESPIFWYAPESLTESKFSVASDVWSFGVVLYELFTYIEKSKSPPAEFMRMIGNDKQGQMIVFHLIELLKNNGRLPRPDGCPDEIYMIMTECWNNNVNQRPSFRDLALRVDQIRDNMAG
Tyk2, sequence (P29597 whole entry): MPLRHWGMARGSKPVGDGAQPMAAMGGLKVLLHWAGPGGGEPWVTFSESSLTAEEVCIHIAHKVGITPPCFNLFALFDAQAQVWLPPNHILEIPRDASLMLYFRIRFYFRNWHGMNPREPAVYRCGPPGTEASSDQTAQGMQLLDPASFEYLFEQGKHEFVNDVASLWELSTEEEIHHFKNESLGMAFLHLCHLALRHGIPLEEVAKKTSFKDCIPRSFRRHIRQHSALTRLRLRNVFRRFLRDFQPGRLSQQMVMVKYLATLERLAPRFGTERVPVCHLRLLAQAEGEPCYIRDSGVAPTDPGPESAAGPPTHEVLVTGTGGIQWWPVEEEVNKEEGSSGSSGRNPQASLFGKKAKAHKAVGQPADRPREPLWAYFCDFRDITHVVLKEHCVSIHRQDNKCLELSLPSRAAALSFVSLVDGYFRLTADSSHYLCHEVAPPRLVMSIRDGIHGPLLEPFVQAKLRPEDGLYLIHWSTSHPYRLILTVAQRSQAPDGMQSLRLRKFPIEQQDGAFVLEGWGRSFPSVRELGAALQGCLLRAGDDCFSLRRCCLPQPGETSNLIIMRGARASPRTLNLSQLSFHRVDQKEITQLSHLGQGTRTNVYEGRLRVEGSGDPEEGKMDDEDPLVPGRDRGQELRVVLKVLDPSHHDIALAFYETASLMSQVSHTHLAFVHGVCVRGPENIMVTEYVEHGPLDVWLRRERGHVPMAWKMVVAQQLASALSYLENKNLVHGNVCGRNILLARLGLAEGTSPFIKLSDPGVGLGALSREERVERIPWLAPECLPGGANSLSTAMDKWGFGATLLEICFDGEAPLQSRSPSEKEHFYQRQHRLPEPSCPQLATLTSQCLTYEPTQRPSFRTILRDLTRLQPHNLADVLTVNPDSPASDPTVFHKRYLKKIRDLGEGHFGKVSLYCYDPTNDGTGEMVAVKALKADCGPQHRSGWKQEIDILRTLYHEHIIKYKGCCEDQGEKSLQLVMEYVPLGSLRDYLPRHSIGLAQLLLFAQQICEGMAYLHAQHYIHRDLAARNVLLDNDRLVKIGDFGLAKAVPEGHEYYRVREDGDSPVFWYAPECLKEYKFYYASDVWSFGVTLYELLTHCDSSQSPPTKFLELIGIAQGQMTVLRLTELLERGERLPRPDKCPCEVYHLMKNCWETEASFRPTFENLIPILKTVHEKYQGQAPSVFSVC

Row | Structure (SMILES) | IC50 (Tyk2) [µM] | IC50 (JAK1) [µM] | IC50 (JAK2) [µM] | IC50 (JAK3) [µM]
1 | Cn1cc(Nc2nccc(-c3ccc(NC(=O)CC4CC4)nc3)n2)cn1 [TDM-180818, 2-cyclopropyl-N-(5-(2-((1-methyl-1H-pyrazol-4-yl)amino)pyrimidin-4-yl)pyridin-2-yl)acetamide] | 0.1 to 1 | 0.1 to 1 | 0.1 to 1 | 1 to 10
2 | COCCC(=O)Nc1ccc(-c2ccnc(Nc3cnn(C)c3)n2)cn1 [TDM-180814, 3-methoxy-N-(5-(2-((1-methyl-1H-pyrazol-4-yl)amino)pyrimidin-4-yl)pyridin-2-yl)propanamide] | 1 to 10 | 0.1 to 1 | 0.1 to 1 | 1 to 10
3 | Cn1cc(Nc2nccc(-c3ccc(C(=O)NCC(F)(F)F)nc3)n2)cn1 [TDM-180756, 5-(2-((1-methyl-1H-pyrazole-4-yl)amino)pyrimidin-4-yl)-N-(2,2,2-trifluoroethyl)pyridinecarboxamide] | 0.1 to 1 | 0.1 to 1 | 0.1 to 1 | 1 to 10
4 | CN1CCN(c2ccc(-c3ccnc(Nc4cnn(C)c4)n3)cc2)CC1 [TDM-180828] | 1 to 10 | 1 to 10 | 1 to 10 | ≥ 10
5 | Cc1cc(-c2ccnc(Nc3cnn(C)c3)n2)ccc1C(=O)NCC(F)(F)F [TDM-180780, 2-methyl-4-(2-((1-methyl-1H-pyrazol-4-yl)amino)pyrimidin-4-yl)-N-(2,2,2-trifluoroethyl)benzamide] | 0.1 to 1 | 0.1 to 1 | 1 to 10 | > 10
6 | Cn1cc(Nc2nccc(-c3ccc(NC(=O)C4CCC4)nc3)n2)cn1 [TDM-180823, N-(5-(2-((1-methyl-1H-pyrazol-4-yl)amino)pyrimidin-4-yl)pyridin-2-yl)cyclobutanemethyl] | 1 to 10 | 0.1 to 1 | 1 to 10 | 1 to 10

The next lines start with the values.

Row | IC50 (Tyk2) [µM] | IC50 (JAK1) [µM] | IC50 (JAK2) [µM] | IC50 (JAK3) [µM] | Structure (SMILES)
7 | 0.1 to 1 | 0.1 to 1 | 0.1 to 1 | 1 to 10 | Cn1cc(Nc2nccc(-c3ccc(C(=O)NCC(F)(F)F)cc3)n2)cn1 [TDM-180748, 4-(2-((1-methyl-1H-pyrazol-4-yl)amino)pyrimidin-4-yl)-N-(2,2,2-trifluoroethyl)benzamide]
8 | 0.1 to 1 | 0.1 to 1 | 0.1 to 1 | 1 to 10 | Cn1cc(Nc2nccc(-c3ccc(NC(=O)CC4CC4)cc3)n2)cn1 [TDM-180804, 2-cyclopropyl-N-(4-(2-((1-methyl-1H-pyrazol-4-yl)amino)pyrimidin-4-yl)phenyl)acetamide]
9 | 0.1 to 1 | 0.1 to 1 | 0.1 to 1 | 1 to 10 | Cn1cc(Nc2nccc(-c3ccc(NC(=O)C4CC4)nc3)n2)cn1 [TDM-180819, N-(5-(2-((1-methyl-1H-pyrazol-4-yl)amino)pyrimidin-4-yl)pyridin-2-yl)cyclopropylcarboxamide]
10 | 0.1 to 1 | 0.1 to 1 | 0.1 to 1 | ≥ 10 | Cn1cc(Nc2nccc(-c3ccc(NC(=O)C4(C)CC4)cc3)n2)cn1 [TDM-180802, 1-methyl-N-(4-(2-((1-methyl-1H-pyrazol-4-yl)amino)pyrimidin-4-yl)phenyl)cyclopropane-1-carboxamide]
11 | 0.1 to 1 | 0.1 to 1 | 0.1 to 1 | 1 to 10 | Cn1cc(Nc2nccc(-c3ccc(NC(=O)C(F)F)cc3)n2)cn1 [TDM-180805, 2,2-difluoro-N-(4-(2-((1-methyl-1H-pyrazol-4-yl)amino)pyrimidin-4-yl)phenyl)acetamide]
12 | < 0.1 | < 0.1 | < 0.1 | < 0.1 | Cn1cc(Nc2nccc(-c3ccc(NS(=O)(=O)Cc4ccccc4)cc3)n2)cn1 [TDM-180820, N-(4-(2-((1-methyl-1H-pyrazol-4-yl)amino)pyrimidin-4-yl)phenyl)-1-phenylmethanesulfonamide]
13 | 1 to 10 | 0.1 to 1 | 1 to 10 | 1 to 10 | Cn1cc(Nc2nccc(-c3ccc(C(=O)NC4CC4(F)F)cc3)n2)cn1 (stereo not drawn) [TDM-180758, N-(2,2-difluorocyclopropyl)-4-(2-((1-methyl-1H-pyrazol-4-yl)amino)pyrimidin-4-yl)benzamide]
14 | 0.1 to 1 | 0.1 to 1 | 0.1 to 1 | 1 to 10 | C=CCS(=O)(=O)Nc1ccc(-c2ccnc(Nc3cnn(C)c3)n2)cc1 [TDM-180844, N-(4-(2-((1-methyl-1H-pyrazol-4-yl)amino)pyrimidin-4-yl)phenyl)prop-2-ene-1-sulfonamide]
15 | 0.1 to 1 | 0.1 to 1 | 1 to 10 | ≥ 10 | Cn1cc(Nc2nccc(-c3ccc(CNCC(F)(F)F)cc3)n2)cn1 [TDM-180760, N-(1-methyl-1H-pyrazol-4-yl)-4-(4-(((2,2,2-trifluoroethyl)amino)methyl)phenyl)pyrimidin-2-amine]
